Our source for the EC50 values is patent US20140235592A1, “SUBSTITUTED 6-METHOXY-4-AMINO-N-PHENYL-2-NAPHTAMIDES AS SPHINGOSINE RECEPTOR MODULATORS” (Allergan, Inc., priority 2013, published 2014).

SMILES strings stand for the structures. pEC50: −log10 of the molar value.

In the assay the target is T1, human S1P1 receptor (Homo sapiens, UniProt P21453).
T1 construct: expressed in transfected cells; membranes used
T1 sequence (P21453 whole entry): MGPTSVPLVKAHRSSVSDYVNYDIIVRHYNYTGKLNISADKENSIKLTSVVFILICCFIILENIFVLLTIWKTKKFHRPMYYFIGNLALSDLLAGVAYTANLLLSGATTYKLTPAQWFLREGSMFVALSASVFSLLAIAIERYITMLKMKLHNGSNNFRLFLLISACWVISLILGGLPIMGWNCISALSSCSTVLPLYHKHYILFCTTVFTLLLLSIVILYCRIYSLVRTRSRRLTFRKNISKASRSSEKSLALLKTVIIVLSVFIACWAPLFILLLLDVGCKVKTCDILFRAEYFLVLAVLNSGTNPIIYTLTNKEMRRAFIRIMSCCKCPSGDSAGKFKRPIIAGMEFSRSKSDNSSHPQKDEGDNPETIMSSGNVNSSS
Description: GTP γ35S binding assay for S1P1 activity. It counts as biochemical. To be noted: membranes of cells stably expressing the S1P1 receptor, test concentrations 0.08 to 5,000 nM. On the procedure: Compounds were tested for S1 P1 activity using the GTP γ^35S binding assay. These compounds may be assessed for their ability to activate or block activation of the human S1 P1 receptor in cells stably expressing the S1 P1 receptor. GTP γ^35S binding was measured in the medium containing (mM) HEPES 25, pH 7.4, MgCl2 10, NaCl 100, dithiothreitol 0.5, digitonin 0.003%, 0.2 nM GTP γ^355, and 5 μg membrane protein in a volume of 150 μl. Test compounds were included in the concentration range from 0.08 to 5,000 nM unless indicated otherwise. Membranes were incubated with 100 μM 5′-adenylylimmidodiphosphate for 30 min, and subsequently with 10 μM GDP for 10 min on ice. Drug solutions and membrane were mixed, and then reactions were initiated by adding GTP γ^35S and continued for 30 min at 25° C. Reaction mixtures were filtered over Whatman GF/B filters under vacuum, and washed three times with 3 mL of ice-cold buffer (HEPES 25, pH7.4, MgCl2 10 and NaCl 100). Filters were dried and mixed with scintillant, and counted for ^35S activity using a β-counter. Agonist-induced GTP γ^355 binding was obtained by subtracting that in the absence of agonist. Binding data were analyzed using a non-linear regression method. In case of antagonist assay, the reaction mixture contained 10 nM S1P in the presence of test antagonist at concentrations ranging from 0.08 to 5000 nM.
In general terms: Binding of GTPγS marks nucleotide exchange on a G protein.
One may read the pEC50 as −log10 of the EC50, conventionally taken in molar units. High values mean a low EC50, low ones a high EC50. Turning to `COc1ccc2cc(C(=O)Nc3ccc(CNCCCP(=O)(O)O)cc3)cc(N(C)CC3CC3)c2c1` [Compound 3, [3-({4-[({4-[(cyclopropylmethyl)(methyl)amino]-6-methoxynaphthalen-2-yl}carbonyl)amino]benzyl}amino)propyl]phosphonic acid], the pEC50 is 6.86.

Take `CCN(CC1CC1)c1cc(C(=O)Nc2ccc(CNCCCP(=O)(O)O)cc2)cc2ccc(OC)cc12` [Compound 5, [3-({4-[({4-[(cyclopropylmethyl)(ethyl)amino]-6-methoxynaphthalen-2-yl}carbonyl)amino]benzyl}amino)propyl]phosphonic acid]: the pEC50 is 6.40.

Compound `CCN(CC)c1cc(C(=O)Nc2ccc(CNCCCP(=O)(O)O)cc2)cc2ccc(OC)cc12` [Compound 7, (3-{[4-({[4-(diethylamino)-6-methoxynaphthalen-2-yl]carbonyl}amino)benzyl]amino}propyl)phosphonic acid] gave a negative-log EC50 (pEC50) of 7.02.

With `CCCN(C)c1cc(C(=O)Nc2ccc(CNCCCP(=O)(O)O)cc2)cc2ccc(OC)cc12` [Compound 8, [3-({4-[({6-methoxy-4-[methyl(propyl)amino]naphthalen-2-yl}carbonyl)amino]benzyl}amino)propyl]phosphonic acid], the pEC50 is 6.80.

As to `COc1ccc2cc(C(=O)Nc3ccc(CNCCCP(=O)(O)O)cc3)cc(N(C)C)c2c1` [Compound 9, (3-{[4-({[4-(dimethylamino)-6-methoxynaphthalen-2-yl]carbonyl}amino)benzyl]amino}propyl)phosphonic acid], the pEC50 was 6.31.
